Laboratory results as given in PubChem BioAssay (NCI).
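Cells were grown in 96-well plates and exposed to each compound for 48 hours at five concentrations; endpoints were interpolated linearly between bracketing concentrations, or set to the highest concentration if not reached. The concentration for full growth arrest is given as TGI.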

Columns and labels:
Test in all cases: NCI anticancer screen, dose series, 48 h
786-0 renal = tested on: 786-0 renal
A549 NSCLC = tested on: A549 NSCLC
BT-549 breast = tested on: BT-549 breast
CCRF-CEM leukemia = tested on: CCRF-CEM leukemia
COLO 205 colon = tested on: COLO 205 colon
DU-145 prostate = tested on: DU-145 prostate
EKVX NSCLC = tested on: EKVX NSCLC
HCC-2998 colon = tested on: HCC-2998 colon
HCT-116 colon = tested on: HCT-116 colon
HCT-15 colon = tested on: HCT-15 colon
HL-60(TB) leukemia = tested on: HL-60(TB) leukemia
HOP-62 NSCLC = tested on: HOP-62 NSCLC
HOP-92 NSCLC = tested on: HOP-92 NSCLC
HT29 colon = tested on: HT29 colon
IGROV1 ovarian = tested on: IGROV1 ovarian
K-562 leukemia = tested on: K-562 leukemia
KM12 colon = tested on: KM12 colon
LOX IMVI melanoma = tested on: LOX IMVI melanoma
M14 melanoma = tested on: M14 melanoma
MCF7 breast = tested on: MCF7 breast
MDA-MB-231 breast = tested on: MDA-MB-231 breast
MDA-MB-435 = tested on: MDA-MB-435
MDA-N = tested on: MDA-N
MOLT-4 leukemia = tested on: MOLT-4 leukemia
NCI-H23 lung = tested on: NCI-H23 lung
NCI-H460 lung = tested on: NCI-H460 lung
NCI-H522 lung = tested on: NCI-H522 lung
OVCAR-3 ovarian = tested on: OVCAR-3 ovarian
OVCAR-4 ovarian = tested on: OVCAR-4 ovarian
OVCAR-5 ovarian = tested on: OVCAR-5 ovarian
OVCAR-8 ovarian = tested on: OVCAR-8 ovarian
PC-3 prostate = tested on: PC-3 prostate
SF-268 CNS = tested on: SF-268 CNS
SF-295 CNS = tested on: SF-295 CNS
SF-539 CNS = tested on: SF-539 CNS
SK-MEL-28 melanoma = tested on: SK-MEL-28 melanoma
SK-MEL-5 melanoma = tested on: SK-MEL-5 melanoma
SK-OV-3 ovarian = tested on: SK-OV-3 ovarian
SN12C renal = tested on: SN12C renal
SNB-19 CNS = tested on: SNB-19 CNS
SNB-75 CNS = tested on: SNB-75 CNS
SR leukemia = tested on: SR leukemia
SW-620 colon = tested on: SW-620 colon
T-47D breast = tested on: T-47D breast
TK-10 renal = tested on: TK-10 renal
U251 CNS = tested on: U251 CNS
UACC-257 melanoma = tested on: UACC-257 melanoma
UACC-62 melanoma = tested on: UACC-62 melanoma
UO-31 renal = tested on: UO-31 renal
ACHN renal = tested on: ACHN renal
CAKI-1 renal = tested on: CAKI-1 renal
MALME-3M melanoma = tested on: MALME-3M melanoma
NCI-H226 lung = tested on: NCI-H226 lung
NCI/ADR-RES ovarian = tested on: NCI/ADR-RES ovarian
RPMI-8226 leukemia = tested on: RPMI-8226 leukemia
RXF 393 renal = tested on: RXF 393 renal
A498 renal = tested on: A498 renal
SK-MEL-2 melanoma = tested on: SK-MEL-2 melanoma

Measured: TGI

CC(=O)NC(C)(C)C1CC=C(C)/C(=N\O)C1 (stereo unspecified)
not listed: ACHN renal | CAKI-1 renal | MALME-3M melanoma | NCI-H226 lung | NCI/ADR-RES ovarian | RPMI-8226 leukemia | RXF 393 renal | A498 renal | SK-MEL-2 melanoma
> 100 µM: all other assays above

CC[N+](C)(CC)CCNC(=O)C(O)(c1ccccc1)c1ccccc1
not listed: MDA-MB-231 breast | MDA-MB-435 | T-47D breast | A498 renal | SK-MEL-2 melanoma
> 100 µM: all other assays above

O=C(COc1ccc(OCC(=O)N2C(=O)CN(c3ccc(Cl)cc3)C2=S)cc1)N1C(=O)CN(c2ccc(Cl)cc2)C1=S
97.6 µM: SF-268 CNS
36.6 µM: SK-MEL-2 melanoma
92.5 µM: MDA-N
32.6 µM: HCT-116 colon
97.9 µM: SN12C renal
90.3 µM: SK-OV-3 ovarian
78 µM: A549 NSCLC
57 µM: MDA-MB-231 breast
34.5 µM: SK-MEL-5 melanoma
43.4 µM: KM12 colon
64.1 µM: COLO 205 colon
51.4 µM: HCC-2998 colon
58.6 µM: 786-0 renal
90.1 µM: NCI-H226 lung
91.5 µM: TK-10 renal
83.6 µM: U251 CNS
75.9 µM: RPMI-8226 leukemia
69.2 µM: NCI-H522 lung
66.8 µM: A498 renal
66.1 µM: NCI-H460 lung
92.2 µM: HT29 colon
40.6 µM: CAKI-1 renal
93.2 µM: UACC-257 melanoma
88 µM: HOP-92 NSCLC
51.5 µM: UACC-62 melanoma
67.5 µM: RXF 393 renal
not listed: CCRF-CEM leukemia | HL-60(TB) leukemia | HOP-62 NSCLC | LOX IMVI melanoma | OVCAR-3 ovarian | OVCAR-8 ovarian | SF-539 CNS | SR leukemia | T-47D breast
> 100 µM: all other assays above
